Data on 19 compounds can be found in patent US9802920B2, “Inhibitors of bruton's tyrosine kinase” (HOFFMANN-LA ROCHE INC., priority 2013, dated 2017).

inactivated state of Bruton's Tyrosine Kinase, sequence (Q06187 whole entry): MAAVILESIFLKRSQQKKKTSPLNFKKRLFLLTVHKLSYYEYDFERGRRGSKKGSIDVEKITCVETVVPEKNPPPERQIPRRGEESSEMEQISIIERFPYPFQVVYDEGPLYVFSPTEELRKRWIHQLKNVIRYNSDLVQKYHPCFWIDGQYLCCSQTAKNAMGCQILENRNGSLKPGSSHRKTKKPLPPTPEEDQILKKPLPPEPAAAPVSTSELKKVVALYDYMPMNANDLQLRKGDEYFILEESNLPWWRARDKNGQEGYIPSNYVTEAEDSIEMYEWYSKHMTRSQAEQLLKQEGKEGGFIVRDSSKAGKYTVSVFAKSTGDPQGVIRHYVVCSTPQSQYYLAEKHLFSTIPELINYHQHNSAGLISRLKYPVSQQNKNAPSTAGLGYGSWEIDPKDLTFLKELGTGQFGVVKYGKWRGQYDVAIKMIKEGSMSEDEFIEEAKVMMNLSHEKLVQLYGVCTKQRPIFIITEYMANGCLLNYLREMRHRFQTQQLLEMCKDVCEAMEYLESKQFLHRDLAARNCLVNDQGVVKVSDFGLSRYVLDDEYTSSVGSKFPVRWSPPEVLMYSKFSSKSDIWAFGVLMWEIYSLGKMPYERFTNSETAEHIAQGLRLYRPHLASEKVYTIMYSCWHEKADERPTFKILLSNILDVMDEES

The target of one experiment is Btk enzyme (His-tagged, full-length) (Homo sapiens (Human), UniProt Q06187). Nature of the experiment: Bruton's Tyrosine Kinase (Btk) Inhibition Assay, radioactive 33P filtration capture. The class given is biochemical. Conditions: 100 μM ATP, 30 μM peptide substrate; read-out: Radiometric IC50. From the text: Bruton's Tyrosine Kinase (Btk) Inhibition Assay
Btk enzyme (His-tagged, full-length), sequence (Q06187 whole entry): as above
The assay is a capture of radioactive ^33P phosphorylated product through filtration. The interactions of Btk, biotinylated SH2 peptide substrate (Src homology), and ATP lead to phosphorylation of the peptide substrate. Biotinylated product is bound streptavidin sepharose beads. All bound, radiolabeled products are detected by scintillation counter.
Plates assayed are 96-well polypropylene (Greiner) and 96-well 1.2 μm hydrophilic PVDF filter plates (Millipore). Concentrations reported here are final assay concentrations: 10-100 μM compounds in DMSO (Burdick and Jackson), 5-10 nM Btk enzyme (His-tagged, full-length), 30 μM peptide substrate (Biotin-Aca-[…]-NH2), 100 μM ATP (Sigma), 8 mM imidazole (Sigma, pH 7.2), 8 mM glycerol-2-phosphate (Sigma), 200 μM EGTA (Roche Diagnostics), 1 mM MnCl2 (Sigma), 20 mM mgCl2 (Sigma), 0.1 mg/mL BSA (Sigma), 2 mM DTT (Sigma), 1 μCi ^33P ATP (Amersham), 20% streptavidin sepharose beads (Amersham), 50 mM EDTA (Gibco), 2 M NaCl (Gibco), 2 M NaCl w/1% phosphoric acid (Gibco), microscint-20 (Perkin Elmer).
IC50 determinations are calculated from 10 data points per compound utilizing data produced from a standard 96-well plate assay template. One control compound and seven unknown inhibitors were tested on each plate and each plate was run twice. Typically, compounds were diluted in half-log starting at 100 μM and ending at 3 nM. The control compound was staurosporine. Background was counted in the absence of peptide substrate. Total activity was determined in the presence of peptide substrate. The following protocol was used to determine Btk inhibition.
Sample preparation: The test compounds were diluted at half-log increments in assay buffer (imidazole, glycerol-2-phosphate, EGTA, MnCl2, mgCl2, BSA).
1) Rinse beads by centrifuging at 500 g
2) Reconstitute the beads with PBS and EDTA to produce a 20% bead slurry
3) Pre-incubate reaction mix without substrate (assay buffer, DTT, ATP, ^33P ATP) and mix with substrate (assay buffer, DTT, ATP, ^33P ATP, peptide substrate) 30° C. for 15 min.
4) To start assay, pre-incubate 10 μL Btk in enzyme buffer (imidazole, glycerol-2-phosphate, BSA) and 10 μL of test compounds for 10 min at RT.
5) Add 30 μL reaction mixture without or with substrate to Btk and compounds.
6) Incubate 50 μL total assay mix for 30 min at 30° C.
7) Transfer 40 μL of assay to 150 μL bead slurry in filter plate to stop reaction.
8) Wash filter plate after 30 min, with following steps
3×250 μL NaCl containing 1% phosphoric acid
9) Dry plate for 1 h at 65° C. or overnight at RT
10) Add 50 μL microscint-20 and count ^33P cpm on scintillation counter. […]
As usually defined, the IC50 is the concentration at which inhibition is half-maximal. For `Nc1c(C(=O)c2cc3ccccc3[nH]2)cnn1-c1ccc(Oc2ccccc2)nc1` [Compound I-2, [5-Amino-1-(6-phenoxy-pyridin-3-yl)-1H-pyrazol-4-yl]-(1H-indol-2-yl)-methanone], the IC50 is 869 nM. Still for that read-out and setting: then `CC(C)Oc1ccc(-n2ncc(C(=O)c3cc4ccccc4[nH]3)c2N)cc1` [Compound I-11, [5-Amino-1-(4-isopropoxy-phenyl)-1H-pyrazol-4-yl]-(1H-indol-2-yl)-methanone], with 73800 nM; and `Nc1c(C(=O)c2cc3ccccc3[nH]2)cnn1-c1ccc(Oc2cccnc2)cc1` [Compound I-4, {5-Amino-1-[4-(pyridin-3-yloxy)-phenyl]-1H-pyrazol-4-yl}-(1H-indol-2-yl)-methanone], with 22000 nM; and `Nc1c(C(=O)c2cc3ccccc3[nH]2)cnn1-c1ccc(Oc2ccccn2)cc1` [Compound I-3, {5-Amino-1-[4-(pyridin-2-yloxy)-phenyl]-1H-pyrazol-4-yl}-(1H-indol-2-yl)-methanone], with 502 nM.

Another experiment addresses inactivated state of Bruton's Tyrosine Kinase (Homo sapiens (Human), UniProt Q06187). Nature of the experiment: Bruton's Tyrosine Kinase (BTK) Inhibition TR-FRET competition assay. The class given is binding. Conditions: Kinase Tracer 178, incubated 18-24 h at 14° C. From the text:
Calculate percent activity from raw data in cpm percent activity=(sample−bkg)/(total activity−bkg)×100 Calculate IC50 from percent activity, using one-site dose response sigmoidal model y=A+((B−A)/(1+((x/C)^D)))) x=cmpd conc, y=% activity, A=min, B=max, C=IC50, D=1 (hill slope) Bruton's Tyrosine Kinase (BTK) Inhibition TR-FRET (Time Resolved FRET) Assay
This BTK competition assay measures compound potency (IC50) for the inactivated state of Bruton's Tyrosine Kinase using FRET (Förster/Flouresence Resonance Energy Transfer) technology. The BTK-Eu complex was incubated on ice one hour prior to use at a starting concentration of 50 nM BTK-Bioease™: 10 nM Eu-streptavidin (Perkin-Elmer Catalog# AD0062). The assay buffer consisted of 20 mM HEPES (pH 7.15), 0.1 mM DTT, 10 mM MgCl2, 0.5 mg/ml BSA with 3% Kinase Stabilizer (Fremont Biosolutions, Catalog # STB-K02). After 1 h, the reaction mixture from above was diluted 10 fold in assay buffer to make 5 nM BTK: 1 nM Eu-Streptavidin complex (donor fluorophore). 18 μl of a mixture of 0.11 nM BTK-Eu and 0.11 nM Kinase Tracer 178 (Invitrogen, Catalog # PV5593) with BTK-Eu alone as no negative control, was then dispensed into 384-well flat bottom plates (Greiner, 784076). Compounds to be tested in assay were prepared as 10× concentrations and serial dilution in half-log increments was performed in DMSO so as to generate 10 point curves. To initiate the FRET reaction, compounds prepared as 10× stock in DMSO was added to the plates and the plates were incubated 18-24 h at 14° C.
After the incubation the plates were read on a BMG Pherastar Fluorescent plate reader (or equivalent) and used to measure the emission energy from the europium donor fluorophore (620 nm emission) and the FRET (665 nm emission). The negative control well values were averaged to obtain the mean minimum. The positive “no inhibitor” control wells were averaged to obtain the mean maximum. Percent of maximal FRET was calculated using following equation: % max FRET=100×[(FSRcmpd−FSRmean min)/(FSRmean max−FSRmean min)] where FSR=FRET Signal ratio. % Max FRET curves were plotted in Activity Base (Excel) and the IC50(%), hill slope, z′ and % CV were determined. The mean IC50 and standard deviation will be derived from duplicate curves (singlet inhibition curves from two independent dilutions) using Microsoft Excel.
Regarding `N#Cc1cccc(Oc2ccc(-n3ncc(C(=O)c4cc5ccccc5[nH]4)c3N)c(Cl)c2)c1` [Compound I-16, 3-{4-[5-Amino-4-(1H-indole-2-carbonyl)-pyrazol-1-yl]-3-chloro-phenoxy}-benzonitrile], the IC50 was determined as 82 nM. `Nc1c(C(=O)c2cc3ccccc3[nH]2)cnn1-c1ccc(OC2CCCC2)cc1` [Compound I-12, [5-Amino-1-(4-cyclopentyloxy-phenyl)-1H-pyrazol-4-yl]-(1H-indol-2-yl)-methanone] returned an FRET IC50 of over 1000 nM. On to `Cc1cc(Oc2ccccc2C#N)ccc1-n1ncc(C(=O)c2cc3ccccc3[nH]2)c1N` [Compound I-15, 2-{4-[5-Amino-4-(1H-indole-2-carbonyl)-pyrazol-1-yl]-3-methyl-phenoxy}-benzonitrile], for which the IC50 is 7 nM.

As to `Cc1cc(Oc2cccc(F)c2F)ccc1-n1ncc(C(=O)c2cc3ccccc3[nH]2)c1N` [Compound I-14, {5-Amino-1-[4-(2,3-difluoro-phenoxy)-2-methyl-phenyl]-1H-pyrazol-4-yl}-(1H-indol-2-yl)-methanone], the IC50 was determined as 3 nM. As for `Nc1c(C(=O)c2cc3ccccc3[nH]2)cnn1-c1ccc(Oc2ccccc2)cc1O` [Compound I-10, [5-Amino-1-(2-hydroxy-4-phenoxy-phenyl)-1H-pyrazol-4-yl]-(1H-indol-2-yl)-methanone], the IC50 was 162 nM. Same read-out and setting: the figure for `Nc1c(C(=O)c2cc3ccccc3[nH]2)cnn1-c1ccc(Oc2ccc(F)c(F)c2)cc1` [Compound I-6, {5-Amino-1-[4-(3,4-difluoro-phenoxy)-phenyl]-1H-pyrazol-4-yl}-(1H-indol-2-yl)-methanone] is 1000 nM; for `Nc1c(C(=O)c2cc3ccccc3[nH]2)cnn1-c1ccc(Oc2ccccc2)c(O)c1` [Compound I-8, [5-Amino-1-(3-hydroxy-4-phenoxy-phenyl)-1H-pyrazol-4-yl]-(1H-indol-2-yl)-methanone] it is 59 nM.

`Nc1c(C(=O)c2cc3ccc(CN4CCOCC4)cc3[nH]2)cnn1-c1ccc(Oc2ccccc2)cc1` [Compound I-19, [5-Amino-1-(4-phenoxy-phenyl)-1H-pyrazol-4-yl]-(6-morpholin-4-ylmethyl-1H-indol-2-yl)-methanone] yielded an IC50 of 0.5 nM. `Cc1cc(Oc2cccc(F)c2F)ccc1-n1ncc(C(=O)c2nc3ccccc3[nH]2)c1N` [Compound I-18, {5-Amino-1-[4-(2,3-difluoro-phenoxy)-2-methyl-phenyl]-1H-pyrazol-4-yl}-(1H-benzoimidazol-2-yl)-methanone]: the IC50 worked out at 5 nM. The compound `COc1cc(Oc2ccccc2)ccc1-n1ncc(C(=O)c2cc3ccccc3[nH]2)c1N` [Compound I-9, [5-Amino-1-(2-methoxy-4-phenoxy-phenyl)-1H-pyrazol-4-yl]-(1H-indol-2-yl)-methanone] had an IC50 of 146 nM. On the same count and under the same terms, then `Nc1c(C(=O)c2cc3ccccc3[nH]2)cnn1-c1ccc(Oc2ccccc2)c(Cl)c1` [Compound I-5], with 216 nM; and `N#Cc1cccc(Oc2ccc(-n3ncc(C(=O)c4cc5ccc(CN6CCOCC6)cc5[nH]4)c3N)c(Cl)c2)c1` [Compound I-20, 3-{4-[5-Amino-4-(6-morpholin-4-ylmethyl-1H-indole-2-carbonyl)-pyrazol-1-yl]-3-chloro-phenoxy}-benzonitrile], with 1 nM.

As to `CC(C)(C)COc1ccc(-n2ncc(C(=O)c3cc4ccccc4[nH]3)c2N)cc1` [Compound I-13, {5-Amino-1-[4-(2,2-dimethyl-propoxy)-phenyl]-1H-pyrazol-4-yl}-(1H-indol-2-yl)-methanone], the FRET IC50 was over 1000 nM.

The compound `Cc1cc(Oc2cccc(C(N)=O)c2)ccc1-n1ncc(C(=O)c2nc3ccccc3[nH]2)c1N` [Compound I-17, 3-{4-[5-Amino-4-(1H-benzoimidazole-2-carbonyl)-pyrazol-1-yl]-3-methyl-phenoxy}-benzamide] yielded an IC50 of 230 nM. The same measure, in the same setting: then `Nc1c(C(=O)c2cc3ccccc3[nH]2)cnn1-c1ccc(Oc2ccccc2)c(F)c1` [Compound I-1, [5-Amino-1-(3-fluoro-4-phenoxy-phenyl)-1H-pyrazol-4-yl]-(1H-indol-2-yl)-methanone], with 41 nM.
